Assay results from patent US20240148821A1, “PHARMACEUTICAL USE OF CYCLIC PEPTIDE COMPOUND” (CHUGAI SEIYAKU KABUSHIKI KAISHA, priority 2021, published 2024).
pIC50: −log10 of the molar value. Numbered stars: 1 amine (or outer) side, 2 acyl side, 3 side chain; on linkers, the order of the positions; unused ones are H or OH. Bridge positions count the residues as written; N and C are the ends. Square brackets hold non-standard residues; d marks the D form. Peptide text beside a SMILES is read from it. * marks the point of attachment. hPhe(3-Cl-4-CF3) = N[C@@H](CCc1ccc(C(F)(F)F)c(Cl)c1)C(=O)O; hPhe(3-F,4-CF3) = N[C@@H](CCc1ccc(C(F)(F)F)c(F)c1)C(=O)O; NMePhe(3,4-F2) = CN[C@@H](Cc1ccc(F)c(F)c1)C(=O)O; 3Oxa8azabicyclo(3.2.1)octane = C1CC2COCC1N2*; NMePhe(4-Cl) = CN[C@@H](Cc1ccc(Cl)cc1)C(=O)O; NMePhe(4-Me) = CN[C@@H](Cc1ccc(C)cc1)C(=O)O; hPhe(4-Cl) = N[C@@H](CCc1ccc(Cl)cc1)C(=O)O; NMedβ3hAla = C[C@H](CC(=O)[*:2])N(C)[*:1]; hNle(7,7-F2) = N[C@@H](CCCCC(F)F)C(=O)O; NMeGly(cPent) = CN[C@H](C(=O)O)C1CCCC1; Met(O2) = CS(=O)(=O)CC[C@H](N)C(=O)O; NMeAla(cPr) = CN[C@@H](CC1CC1)C(=O)O; NMeCha = CN[C@@H](CC1CCCCC1)C(=O)O; NMeAhp(2) = CCCCC[C@H](NC)C(=O)O; NMeI = CC[C@H](C)[C@H](NC)C(=O)O; N(CH2CH2)2CF2 = FC1(F)CCN(*)CC1; NMeD = CN[C@@H](CC(=O)O)C(=O)O; NMeL = CN[C@@H](CC(C)C)C(=O)O; NMeV = CN[C@H](C(=O)O)C(C)C; d(β3hA) = C[C@@H](N)CC(=O)O; Azetidin(1-yl) = C1CN(*)C1; NMeS = CN[C@@H](CO)C(=O)O; NMeA = CN[C@@H](C)C(=O)O; NMeAib = CNC(C)(C)C(=O)O; Nle = CCCC[C@H](N)C(=O)O; Piperidide = C1CCN(*)CC1; Ac5c = NC1(C(=O)O)CCCC1; Aze = O=C(O)[C@@H]1CCN1; Sar = CNCC(=O)O; Propyl = CCC*

Key:
[1] = biological target: protein-protein interaction between Kras and SOS1 (biotin-tagged human Kras loaded with GDP, His-tagged human SOS1) (Homo sapiens (Human), UniProt P01116, G12D); assay: Protein-protein interaction inhibition between Kras and SOS1 (KrasG12D-SOS PPI) using AlphaScreen; type: biochemical; conditions: AlphaScreen; biotin-tagged human Kras loaded with GDP, His-tagged human SOS1; read-out: KRAS G12D-SOS PPI IC50;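 note: kras produced in E. coli, Ni-coupled donor beads and streptavidin acceptor beads, excitation 680 nm with emission detected at 520–620 nm via singlet oxygen transfer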
[2] = test system: Human pancreatic cancer cell line AsPC-1 (G12D mutation Kras); assay: AsPC-1 cell growth inhibition (AsPC-1 CGI); type: cell-based; conditions: read-out: AsPC-1 cell growth inhibition, 50% growth inhibitory concentration (IC50 value); 96 hours, CellTiter-Glo, values classified in ranges
Method: Test compounds were serially dilated with dimethyl sulfoxide, and 200 nL was then dispensed to a U-bottom 96-well plate using Labcyte Echo. […] The cell suspension was dispensed to a. plate containing a test compound at 100 μL per well and incubated at 37° C. in a 5% carbon dioxide gas incubator. 96 hours later, 80 μL of CellTiter-Glo (Promega) was added to each well and fluorescence was measured.

Row | SMILES | pIC50 [1] | pIC50 [2]
1 | CC[C@H](C)[C@@H]1NC(=O)[C@H](CC(C)C)N(C)C(=O)C[C@@H](C(=O)N(C)C)N(C)C(=O)[C@H](C2CCCC2)N(C)C(=O)C2(CCCC2)NC(=O)[C@@H]2CCCN2C(=O)[C@H](CCc2ccc(C(F)(F)F)c(F)c2)NC(=O)CN(C)C(=O)[C@H](C2CCCC2)N(C)C(=O)[C@@H]2CCN2C(=O)[C@H](C)N(C)C1=O [Compound 134] ([NMeL]I[NMeA][Aze][NMeGly(cPent)][Sar][hPhe(3-F,4-CF3)]P[Ac5c][NMeGly(cPent)][NMeD]-NMe2; lactam N-11) | 9.21 | ≥ 7.70
2 | CC[C@H](C)[C@@H]1NC(=O)[C@H](CC(C)C)N(C)C(=O)C[C@@H](C(=O)N2CCCCC2)N(C)C(=O)[C@H](C(C)C)N(C)C(=O)C2(CCCC2)NC(=O)[C@@H]2CCCN2C(=O)[C@H](CCc2ccc(C(F)(F)F)c(F)c2)NC(=O)CN(C)C(=O)[C@H](CC2CCCCC2)N(C)C(=O)CN(C)C(=O)[C@@H]2CCN2C1=O [Compound 139] ([NMeL]I[Aze][Sar][NMeCha][Sar][hPhe(3-F,4-CF3)]P[Ac5c][NMeV][NMeD]-Piperidide; lactam N-11) | 8.08 | < 6.30
3 | CCCCC[C@H]1C(=O)N[C@@H]([C@@H](C)CC)C(=O)N(C)[C@@H](C)C(=O)N2CC[C@H]2C(=O)N(C)[C@@H](CC2CCCCC2)C(=O)N(C)CC(=O)N[C@@H](CCc2ccc(C(F)(F)F)c(Cl)c2)C(=O)N2CCC[C@H]2C(=O)NC2(CCCC2)C(=O)N(C)[C@@H](C2CCCC2)C(=O)N(C)[C@H](C(=O)N2CCC2)CC(=O)N1C [Compound 144] ([NMeAhp(2)]I[NMeA][Aze][NMeCha][Sar][hPhe(3-Cl-4-CF3)]P[Ac5c][NMeGly(cPent)][NMeD]-{Azetidin(1-yl)}; lactam N-11) | 8.96 | ≥ 7.70
4 | CC(C)C[C@H]1C(=O)N[C@@H](CCCCC(F)F)C(=O)N(C)[C@@H](C)C(=O)N2CC[C@H]2C(=O)N(C)[C@@H](CC2CCCCC2)C(=O)N(C)CC(=O)N[C@@H](CCc2ccc(C(F)(F)F)c(Cl)c2)C(=O)N2CCC[C@H]2C(=O)NC2(CCCC2)C(=O)N(C)[C@@H](C(C)C)C(=O)N(C)[C@H](C(=O)N2CCCCC2)CC(=O)N1C [Compound 145] ([NMeL][hNle(7,7-F2)][NMeA][Aze][NMeCha][Sar][hPhe(3-Cl-4-CF3)]P[Ac5c][NMeV][NMeD]-Piperidide; lactam N-11) | 7.60 | < 6.30
5 | CC[C@H](C)[C@@H]1NC(=O)[C@H](CC(C)C)N(C)C(=O)C[C@@H](C(=O)N2CCC2)N(C)C(=O)[C@H]([C@@H](C)CC)N(C)C(=O)C2(CCCC2)NC(=O)[C@@H]2CCCN2C(=O)[C@H](CCc2ccc(C(F)(F)F)c(Cl)c2)NC(=O)CN(C)C(=O)[C@H](CC2CCCCC2)N(C)C(=O)[C@@H]2CCN2C(=O)[C@H](C)N(C)C1=O [Compound 150] ([NMeL]I[NMeA][Aze][NMeCha][Sar][hPhe(3-Cl-4-CF3)]P[Ac5c][NMeI][NMeD]-{Azetidin(1-yl)}; lactam N-11) | 8.89 | ≥ 7.70
6 | CC[C@H](C)[C@@H]1NC(=O)[C@H](C)N(C)C(=O)C[C@@H](C)NC(=O)[C@H](C2CCCC2)N(C)C(=O)C2(CCCC2)NC(=O)[C@@H]2CCCN2C(=O)[C@H](CCc2ccc(C(F)(F)F)c(Cl)c2)NC(=O)CN(C)C(=O)[C@H](Cc2ccc(C)cc2)N(C)C(=O)[C@@H]2CCCN2C(=O)CN(C)C1=O [Compound 151] (cyclo([Ac5c][NMeGly(cPent)][d(β3hA)][NMeA]I[Sar]P[NMePhe(4-Me)][Sar][hPhe(3-Cl-4-CF3)]P)) | 8.30 | < 6.30
7 | CC[C@H](C)[C@@H]1NC(=O)[C@H](CC(C)C)N(C)C(=O)C[C@@H](C(=O)N2CCCCC2)N(C)C(=O)[C@H](C(C)C)N(C)C(=O)C2(CCCC2)NC(=O)[C@H](C)NC(=O)[C@H](CCc2ccc(C(F)(F)F)c(Cl)c2)NC(=O)CN(C)C(=O)[C@H](CC2CCCCC2)N(C)C(=O)CN(C)C(=O)CN(C)C1=O [Compound 156] ([NMeL]I[Sar][Sar][NMeCha][Sar][hPhe(3-Cl-4-CF3)]A[Ac5c][NMeV][NMeD]-Piperidide; lactam N-11) | 9.01 | < 6.30
8 | CCCC[C@@H]1NC(=O)[C@H](CCc2ccc(C(F)(F)F)c(F)c2)NC(=O)CN(C)C(=O)[C@H](Cc2ccc(Cl)cc2)N(C)C(=O)CN(C)C(=O)CN(C)C(=O)[C@H]([C@@H](C)CC)NC(=O)[C@H](CC(C)C)N(C)C(=O)C[C@@H](C)N(C)C(=O)[C@H](CC(C)C)NC(=O)C(C)(C)N(C)C1=O [Compound 165] (cyclo(I[Sar][Sar][NMePhe(4-Cl)][Sar][hPhe(3-F,4-CF3)][Nle][NMeAib]L[NMedβ3hAla][NMeL])) | 7.39 | < 6.30
9 | CC[C@H](C)[C@@H]1NC(=O)[C@H](C)N(C)C(=O)C[C@@H](C(=O)N2CCCCC2)N(C)C(=O)[C@H](C(C)C)N(C)C(=O)C2(CCCC2)NC(=O)[C@H](Cc2ccc(F)c(F)c2)N(C)C(=O)[C@H](CCc2ccc(C(F)(F)F)c(Cl)c2)NC(=O)CN(C)C(=O)[C@H](CC2CCCCC2)N(C)C(=O)CN(C)C(=O)CN(C)C1=O [Compound 171] ([NMeA]I[Sar][Sar][NMeCha][Sar][hPhe(3-Cl-4-CF3)][NMePhe(3,4-F2)][Ac5c][NMeV][NMeD]-Piperidide; lactam N-11) | 7.85 | < 6.30
10 | CC[C@H](C)[C@@H]1NC(=O)[C@H](CC(C)C)N(C)C(=O)C[C@@H](C(=O)N2CCCCC2)N(C)C(=O)[C@H](CC2CC2)N(C)C(=O)C2(CCCC2)NC(=O)[C@@H]2CCCN2C(=O)[C@H](CCc2ccc(C(F)(F)F)c(Cl)c2)NC(=O)CN(C)C(=O)[C@H](CC2CCCCC2)N(C)C(=O)[C@@H]2CCN2C(=O)[C@H](C)N(C)C1=O [Compound 172] ([NMeL]I[NMeA][Aze][NMeCha][Sar][hPhe(3-Cl-4-CF3)]P[Ac5c][NMeAla(cPr)][NMeD]-Piperidide; lactam N-11) | 8.40 | < 6.30
11 | CC(C)C[C@H]1C(=O)N[C@@H](CCS(C)(=O)=O)C(=O)N(C)[C@@H](C)C(=O)N2CC[C@H]2C(=O)N(C)[C@@H](CC2CCCCC2)C(=O)N(C)CC(=O)N[C@@H](CCc2ccc(C(F)(F)F)c(Cl)c2)C(=O)N2CCC[C@H]2C(=O)NC2(CCCC2)C(=O)N(C)[C@@H](C(C)C)C(=O)N(C)[C@H](C(=O)N2CCCCC2)CC(=O)N1C [Compound 174] ([NMeL][Met(O2)][NMeA][Aze][NMeCha][Sar][hPhe(3-Cl-4-CF3)]P[Ac5c][NMeV][NMeD]-Piperidide; lactam N-11) | 7.24 | < 6.30
12 | CCCOC[C@H]1C(=O)N(C)CC(=O)N[C@@H](CCc2ccc(C(F)(F)F)c(Cl)c2)C(=O)N2CCC[C@H]2C(=O)NC2(CCCC2)C(=O)N(C)[C@@H](C2CCCC2)C(=O)N(C)[C@H](C(=O)N2C3CCC2COC3)CC(=O)N(C)[C@@H](CC(C)C)C(=O)N[C@@H]([C@@H](C)CC)C(=O)N(C)[C@@H](C)C(=O)N2CC[C@H]2C(=O)N1C [Compound 176] ([NMeL]I[NMeA][Aze][NMeS](Propyl)[Sar][hPhe(3-Cl-4-CF3)]P[Ac5c][NMeGly(cPent)][NMeD]-{3Oxa8azabicyclo(3.2.1)octane}; lactam N-11) | 8.85 | ≥ 7.70
13 | CC[C@H](C)[C@@H]1NC(=O)[C@H](CC(C)C)N(C)C(=O)C[C@@H](C(=O)N2CCCCC2)N(C)C(=O)[C@H](C(C)C)N(C)C(=O)C2(CCCC2)NC(=O)[C@H](CC(=O)N2CCC(F)(F)CC2)N(C)C(=O)[C@H](CCc2ccc(Cl)cc2)NC(=O)CN(C)C(=O)[C@H](CC2CCCCC2)N(C)C(=O)CN(C)C(=O)CN(C)C1=O [Compound 177] ([NMeL]I[Sar][Sar][NMeCha][Sar][hPhe(4-Cl)][NMeD](N(CH2CH2)2CF2)[Ac5c][NMeV][NMeD]-Piperidide; lactam N-11) | 7.35 | < 6.30
